This is an account of results in patent US10364256B2 (GlaxoSmithKline Intellectual Property Development Limited, priority 2015, dated 2019).

Assay [1] addresses T1, full length Keap1 protein / full length NRF2 protein (Homo sapiens, UniProt Q14145).
T1 construct: full length NRF2 protein and full length Keap1 protein (Keap1 exists a dimer) are used; His
The experiment in a line: NRF2-Keap1 TR-FRET Assay. The assay is classed as binding. To be noted: 25 nM Keap1-FlagHis and 50 nM biotin-NRF2 added. In a few lines:
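Displacement of biotinylated full-length NRF2 from full-length Keap1 read by Eu/APC TR-FRET (665/615 nm) after 1 h detection at RT. Compound, 3-fold series, first incubated with Keap1 at 37 °C for 2.25 h, NRF2 then added at 4 °C for 1.25 h; pIC50 by four-parameter equation.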

Assay [2] has as its system NQO1 specific enzyme activity in BEAS-2B cells (marker for NRF2 activation). Put plainly: BEAS-2B NQO1 MTT Assay. The assay is classed as cell-based. To be noted: compound incubated 48 hours, read-out: EC50 (NQO1 specific enzyme activity induction). In a few lines: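 NQO1 specific activity induction is derived from the rate of MTT reduction (ΔOD/min, 570 nm, 30 min kinetic read) in crude lysates of BEAS-2B cells exposed to compound for 48 h. A 3-parameter fit gives EC50, reported as pEC50; part of each lysate goes to Cell Titer Glo.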

Where two headings read alike, the source gives them in different places.

T1 sequence (Q14145 whole entry): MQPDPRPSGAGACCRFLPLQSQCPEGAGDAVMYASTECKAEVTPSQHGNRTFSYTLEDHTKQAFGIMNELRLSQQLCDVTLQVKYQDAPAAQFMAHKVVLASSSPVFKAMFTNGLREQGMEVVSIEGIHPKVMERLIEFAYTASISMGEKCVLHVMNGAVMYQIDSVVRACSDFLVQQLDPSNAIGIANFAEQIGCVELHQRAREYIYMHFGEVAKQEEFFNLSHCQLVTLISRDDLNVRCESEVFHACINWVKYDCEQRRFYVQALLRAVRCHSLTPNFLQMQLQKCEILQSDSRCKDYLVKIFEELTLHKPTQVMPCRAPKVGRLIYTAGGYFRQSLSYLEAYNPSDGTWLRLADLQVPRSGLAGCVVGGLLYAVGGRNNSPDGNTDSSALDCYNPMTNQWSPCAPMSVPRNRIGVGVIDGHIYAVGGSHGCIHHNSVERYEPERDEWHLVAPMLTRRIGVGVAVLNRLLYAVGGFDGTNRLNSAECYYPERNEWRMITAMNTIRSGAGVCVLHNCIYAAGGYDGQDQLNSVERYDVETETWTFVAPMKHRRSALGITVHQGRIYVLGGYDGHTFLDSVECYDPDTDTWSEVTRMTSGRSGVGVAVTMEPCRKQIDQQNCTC

`Cn1cc([C@H]2C[C@@H]2c2c(C(=O)O)cnn2-c2cccc(-c3cccc(C(=O)N4CCCCC4)c3F)c2)nn1` (racemic) [Example 258, 1-(2′-Fluoro-3′-(piperidine-1-carbonyl)-[1,1′-biphenyl]-3-yl)-5-(trans-2-(1-methyl-1H-1,2,3-triazol-4-yl)cyclopropyl)-1H-pyrazole-4-carboxylic Acid] came in with a half-inhibitory concentration (IC50) in assay [1] of 10 to 100 nM. Besides, in assay [2] (Homo sapiens), the concentration giving a half-maximal response (EC50) lay in the range of 100 to 1000 nM.

In assay [1], `C[C@@H]1CCC[C@H](C)N1C(=O)c1cccc(-c2cccc(-n3ncc(C(=O)O)c3[C@H]3C[C@@H]3c3cn(C)nn3)c2)c1F` (single isomer, unassigned) [Example 261] came in with an IC50 of 10 to 100 nM. The EC50 in assay [2] (Homo sapiens) was 10 to 100 nM.

Take “1-(3′-((2-chlorocyclohexyl)methoxy)-[1,1′-biphenyl]-3-yl)-5-((1,2-trans)-2-(1-methyl-1H-1,2,3-triazol-4-yl)cyclopropyl)-1H-pyrazole-4-carboxylic acid [Example 186]”: in assay [1], the concentration for half-maximal inhibition (IC50) lay in the range of 100 to 1000 nM. Moreover, the 50% effective concentration (EC50) in assay [2] is 10 to 100 nM.

The compound `C[C@@H]1CCC[C@H](C)N1C(=O)c1cccc(-c2cccc(-n3ncc(C(=O)O)c3[C@@H]3C[C@H]3c3cn(C)nn3)c2)c1F` (single isomer, unassigned) [Example 262] returned an IC50 in assay [1] of 10 to 100 nM. Further, in assay [2] (Homo sapiens), the 50% effective concentration (EC50) is 10 to 100 nM.

Take `O=C(O)c1cnn(-c2cccc(-c3cccc(C(=O)N(CC4CC4)CC4CC4)c3F)c2)c1C1CC1` [Example 8, 1-(3-{3-[Bis(cyclopropylmethyl)carbamoyl]-2-fluorophenyl}phenyl)-5-cyclopropyl-1H-pyrazole-4-carboxylic Acid]: the IC50 in assay [1] fell in the range of 100 to 1000 nM. The EC50 in assay [2] (Homo sapiens) was in the range of 100 to 1000 nM.

Consider `O=C(O)c1cnn(-c2cccc(-c3cccc(C(=O)N4CCCC5(CCCC5)C4)c3F)c2)c1C1CC1` [Example 35, 1-[3-(3-{7-Azaspiro[4.5]decane-7-carbonyl}-2-fluorophenyl)phenyl]-5-cyclopropyl-1H-pyrazole-4-carboxylic Acid], for which the IC50 in assay [1] fell in the range of 100 to 1000 nM. For the same compound, in assay [2] (Homo sapiens), the EC50 was 100 to 1000 nM.

Regarding `CCC[C@@H]1CCCCN1C(=O)c1cccc(-c2cccc(-n3ncc(C(=O)O)c3CCc3cn(C)nn3)c2)c1F` [Example 55, (R)-1-(2′-Fluoro-3′-(2-propylpiperidine-1-carbonyl)-[1,1′-biphenyl]-3-yl)-5-(2-(1-methyl-1H-1,2,3-triazol-4-yl)ethyl)-1H-pyrazole-4-carboxylic Acid], in assay [1], the concentration for half-maximal inhibition (IC50) is 10 to 100 nM. Also, in assay [2] (Homo sapiens), the EC50 lay in the range of 1000 to 10000 nM.

In assay [1], `C[C@@H]1CN(Cc2cccc(-c3cccc(-n4ncc(C(=O)O)c4[C@@H]4C[C@H]4c4cn(C)nn4)c3)c2)Cc2ccccc2O1` [Example 253] displayed an IC50 of 100 to 1000 nM. For the same compound, in assay [2] (Homo sapiens), the concentration for a half-maximal effect (EC50) is 100 to 1000 nM.

In assay [1], `Cn1cc([C@H]2C[C@@H]2c2c(C(=O)O)cnn2-c2cccc(-c3cccc(C(=O)N4CCCCCC4)c3F)c2)nn1` (racemic) [Example 260, 1-(2′-Fluoro-3′-(azepane-1-carbonyl)-[1,1′-biphenyl]-3-yl)-5-(trans-2-(1-methyl-1H-1,2,3-triazol-4-yl)cyclopropyl)-1H-pyrazole-4-carboxylic Acid] had a half-inhibitory concentration (IC50) of 10 to 100 nM. Also, the concentration for a half-maximal effect (EC50) in assay [2] (Homo sapiens) lay in the range of 100 to 1000 nM.
